Measurements published in ChEMBL document CHEMBL5303763, “Data for DCP probe BI-3802” (2023).
Values belong to the compound of their own block, whether it stands above or below them. Activity calls are given as the source filed them. No cut-off for these calls is given here.

What was measured:
[1] = molecular target: Kappa-type opioid receptor (Homo sapiens) (UniProt P41145); conditions: Compound concentration 10.0 uM
[2] = molecular target: Dual specificity mitogen-activated protein kinase kinase 2 (Homo sapiens) (UniProt P36507); experiment: MAP2K2 Invitrogen Lab (UK) kinase screen (BI); conditions: Compound concentration 1.0 uM
[3] = molecular target: D(4) dopamine receptor (Homo sapiens) (UniProt P21917); conditions: Compound concentration 10.0 uM
[4] = molecular target: 5-hydroxytryptamine receptor 2C (Homo sapiens) (UniProt P28335); conditions: Compound concentration 10.0 uM
[5] = molecular target: Focal adhesion kinase 1 (Homo sapiens) (UniProt Q05397); experiment: PTK2 Invitrogen Lab (UK) kinase screen (BI); conditions: Compound concentration 1.0 uM
[6] = molecular target: Insulin receptor (Homo sapiens) (UniProt P06213); experiment: INSR Invitrogen Lab (UK) kinase screen (BI); conditions: Compound concentration 1.0 uM
[7] = molecular target: Histamine H1 receptor (Homo sapiens) (UniProt P35367); conditions: Compound concentration 10.0 uM
[8] = molecular target: Ephrin type-A receptor 2 (Homo sapiens) (UniProt P29317); experiment: EPHA2 Invitrogen Lab (UK) kinase screen (BI); conditions: Compound concentration 1.0 uM
[9] = molecular target: 5-hydroxytryptamine receptor 5A (Homo sapiens) (UniProt P47898); conditions: Compound concentration 10.0 uM
[10] = molecular target: Mitogen-activated protein kinase 3 (Homo sapiens) (UniProt P27361); experiment: MAPK3 Invitrogen Lab (UK) kinase screen (BI); conditions: Compound concentration 1.0 uM
[11] = molecular target: 5-hydroxytryptamine receptor 1D (Homo sapiens) (UniProt P28221); conditions: Compound concentration 10.0 uM
[12] = molecular target: B-cell lymphoma 6 protein (Homo sapiens, UniProt P41182); experiment: BCL6::NCOR LUMIER in cells
[13] = molecular target: Dual specificity protein kinase CLK1 (Homo sapiens) (UniProt P49759); experiment: CLK1 Invitrogen Lab (UK) kinase screen (BI); conditions: Compound concentration 1.0 uM
[14] = molecular target: Dual specificity mitogen-activated protein kinase kinase 6 (Homo sapiens) (UniProt P52564); experiment: MAP2K6 Invitrogen Lab (UK) kinase screen (BI); conditions: Compound concentration 1.0 uM
[15] = molecular target: Tyrosine-protein kinase ITK/TSK (Homo sapiens) (UniProt Q08881); experiment: ITK Invitrogen Lab (UK) kinase screen (BI); conditions: Compound concentration 1.0 uM
[16] = molecular target: Mitogen-activated protein kinase 8 (Homo sapiens) (UniProt P45983); experiment: MAPK8 Invitrogen Lab (UK) kinase screen (BI); conditions: Compound concentration 1.0 uM
[17] = molecular target: Ribosomal protein S6 kinase beta-1 (Homo sapiens) (UniProt P23443); experiment: RPS6KB1 Invitrogen Lab (UK) kinase screen (BI); conditions: Compound concentration 1.0 uM
[18] = molecular target: Cannabinoid receptor 1 (Homo sapiens) (UniProt P21554); experiment: CB1/CENTR/H Eurofins SafetyScreen44 (BI); conditions: Compound concentration 10.0 uM
[19] = molecular target: Serine/threonine-protein kinase TBK1 (Homo sapiens) (UniProt Q9UHD2); experiment: TBK1 Invitrogen Lab (UK) kinase screen (BI); conditions: Compound concentration 1.0 uM
[20] = molecular target: Ribosomal protein S6 kinase alpha-3 (Homo sapiens) (UniProt P51812); experiment: RPS6KA3 Invitrogen Lab (UK) kinase screen (BI); conditions: Compound concentration 1.0 uM
[21] = molecular target: Histamine H4 receptor (Homo sapiens) (UniProt Q9H3N8); conditions: Compound concentration 10.0 uM
[22] = molecular target: Muscarinic acetylcholine receptor M4 (Homo sapiens) (UniProt P08173); conditions: Compound concentration 10.0 uM
[23] = molecular target: Protein kinase C alpha type (Homo sapiens) (UniProt P17252); experiment: PRKCA Invitrogen Lab (UK) kinase screen (BI); conditions: Compound concentration 1.0 uM
[24] = molecular target: GABA-A receptor; anion channel (Rattus norvegicus) (UniProt O09028+P15431+P18506+P18508+P19969+P20236+P23574+P23576+P28471+P28473+P30191+P62813+P63079+P63138+Q91ZM7+Q9ES14); conditions: Compound concentration 10.0 uM
[25] = molecular target: Myosin light chain kinase 2, skeletal/cardiac muscle (Homo sapiens) (UniProt Q9H1R3); experiment: MYLK2 Invitrogen Lab (UK) kinase screen (BI); conditions: Compound concentration 1.0 uM
[26] = molecular target: Ribosomal protein S6 kinase alpha-4 (Homo sapiens) (UniProt O75676); experiment: RPS6KA4 Invitrogen Lab (UK) kinase screen (BI); conditions: Compound concentration 1.0 uM
[27] = molecular target: RAF proto-oncogene serine/threonine-protein kinase (Homo sapiens) (UniProt P04049); experiment: RAF1 Invitrogen Lab (UK) kinase screen (BI); conditions: Compound concentration 1.0 uM
[28] = molecular target: Sodium-dependent serotonin transporter (Homo sapiens) (UniProt P31645); conditions: Compound concentration 10.0 uM
[29] = molecular target: Casein kinase I isoform alpha (Homo sapiens) (UniProt P48729); experiment: CSNK1A1 Invitrogen Lab (UK) kinase screen (BI); conditions: Compound concentration 1.0 uM
[30] = molecular target: Sodium-dependent dopamine transporter (Homo sapiens) (UniProt Q01959); conditions: Compound concentration 10.0 uM
[31] = molecular target: Epidermal growth factor receptor (Homo sapiens) (UniProt P00533); experiment: EGFR Invitrogen Lab (UK) kinase screen (BI); conditions: Compound concentration 1.0 uM
[32] = molecular target: Tyrosine-protein kinase Lyn (Homo sapiens) (UniProt P07948); experiment: LYN A Invitrogen Lab (UK) kinase screen (BI); conditions: Compound concentration 1.0 uM
[33] = molecular target: Serine/threonine-protein kinase PAK 4 (Homo sapiens) (UniProt O96013); experiment: PAK4 Invitrogen Lab (UK) kinase screen (BI); conditions: Compound concentration 1.0 uM
[34] = molecular target: Alpha-2B adrenergic receptor (Homo sapiens) (UniProt P18089); conditions: Compound concentration 10.0 uM
[35] = molecular target: Serine/threonine-protein kinase Nek1 (Homo sapiens) (UniProt Q96PY6); experiment: NEK1 Invitrogen Lab (UK) kinase screen (BI); conditions: Compound concentration 1.0 uM
[36] = molecular target: Interleukin-1 receptor-associated kinase 4 (Homo sapiens) (UniProt Q9NWZ3); experiment: IRAK4 Invitrogen Lab (UK) kinase screen (BI); conditions: Compound concentration 1.0 uM
[37] = molecular target: D(1B) dopamine receptor (Homo sapiens) (UniProt P21918); conditions: Compound concentration 10.0 uM
[38] = molecular target: Cannabinoid receptor 1 (Homo sapiens) (UniProt P21554); experiment: CB1(HU)_AGON Eurofins SafetyScreen44 (BI); conditions: filed as agonist; Compound concentration 10.0 uM
[39] = molecular target: Zinc finger and BTB domain-containing protein 17 (Homo sapiens, UniProt Q13105); experiment: SPR (ZBTB17), Ontario institute for cancer research
[40] = molecular target: Kappa-type opioid receptor (Homo sapiens) (UniProt P41145); experiment: KAPPA(KOP)_HU Eurofins SafetyScreen44 (BI); conditions: Compound concentration 10.0 uM

Chain of Kappa-type opioid receptor (Homo sapiens) (P41145 whole entry): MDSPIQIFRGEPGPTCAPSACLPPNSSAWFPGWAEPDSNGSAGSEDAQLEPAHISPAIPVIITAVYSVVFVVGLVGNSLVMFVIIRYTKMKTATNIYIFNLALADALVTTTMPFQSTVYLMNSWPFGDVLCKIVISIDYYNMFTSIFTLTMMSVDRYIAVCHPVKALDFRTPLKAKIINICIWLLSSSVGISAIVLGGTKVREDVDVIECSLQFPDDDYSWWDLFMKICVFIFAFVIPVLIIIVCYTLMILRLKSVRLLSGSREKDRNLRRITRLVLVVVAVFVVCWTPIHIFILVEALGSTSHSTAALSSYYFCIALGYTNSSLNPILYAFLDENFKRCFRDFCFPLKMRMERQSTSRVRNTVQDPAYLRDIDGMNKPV
Chain of 5-hydroxytryptamine receptor 1D (Homo sapiens) (P28221 whole entry): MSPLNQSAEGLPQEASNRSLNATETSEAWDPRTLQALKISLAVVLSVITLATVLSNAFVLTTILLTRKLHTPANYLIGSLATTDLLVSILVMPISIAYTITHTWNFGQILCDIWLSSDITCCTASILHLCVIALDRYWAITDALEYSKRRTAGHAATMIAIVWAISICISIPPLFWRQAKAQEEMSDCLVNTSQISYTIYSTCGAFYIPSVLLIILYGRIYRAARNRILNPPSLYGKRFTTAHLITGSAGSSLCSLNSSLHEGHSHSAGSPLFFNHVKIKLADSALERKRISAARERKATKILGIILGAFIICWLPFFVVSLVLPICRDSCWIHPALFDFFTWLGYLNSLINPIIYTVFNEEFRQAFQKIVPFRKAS
Chain of Histamine H1 receptor (Homo sapiens) (P35367 whole entry): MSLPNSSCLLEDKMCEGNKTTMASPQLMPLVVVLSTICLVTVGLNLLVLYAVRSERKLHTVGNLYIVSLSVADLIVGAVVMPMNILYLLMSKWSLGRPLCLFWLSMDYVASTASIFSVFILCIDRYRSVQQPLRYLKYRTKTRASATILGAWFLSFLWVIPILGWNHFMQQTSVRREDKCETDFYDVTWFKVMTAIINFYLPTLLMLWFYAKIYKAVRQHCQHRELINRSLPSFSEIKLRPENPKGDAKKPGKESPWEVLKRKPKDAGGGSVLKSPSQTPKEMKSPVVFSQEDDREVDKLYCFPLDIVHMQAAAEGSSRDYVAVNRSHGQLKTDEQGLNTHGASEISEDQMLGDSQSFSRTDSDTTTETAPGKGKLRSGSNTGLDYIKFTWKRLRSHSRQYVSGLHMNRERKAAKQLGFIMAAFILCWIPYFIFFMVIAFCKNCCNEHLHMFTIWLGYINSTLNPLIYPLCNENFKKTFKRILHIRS
Chain of D(1B) dopamine receptor (Homo sapiens) (P21918 whole entry): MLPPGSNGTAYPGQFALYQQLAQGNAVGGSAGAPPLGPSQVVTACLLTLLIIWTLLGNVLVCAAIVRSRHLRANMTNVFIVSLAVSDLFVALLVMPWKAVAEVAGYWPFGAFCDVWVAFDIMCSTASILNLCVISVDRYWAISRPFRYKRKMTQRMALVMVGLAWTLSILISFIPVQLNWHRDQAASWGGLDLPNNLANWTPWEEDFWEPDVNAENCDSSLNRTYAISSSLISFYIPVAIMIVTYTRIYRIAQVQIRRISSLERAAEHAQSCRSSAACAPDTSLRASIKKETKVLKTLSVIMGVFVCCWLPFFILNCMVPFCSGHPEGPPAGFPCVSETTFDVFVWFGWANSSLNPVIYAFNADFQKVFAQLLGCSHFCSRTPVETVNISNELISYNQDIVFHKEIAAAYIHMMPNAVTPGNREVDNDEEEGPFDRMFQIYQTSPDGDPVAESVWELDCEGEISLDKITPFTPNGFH
Chain of Sodium-dependent dopamine transporter (Homo sapiens) (Q01959 whole entry): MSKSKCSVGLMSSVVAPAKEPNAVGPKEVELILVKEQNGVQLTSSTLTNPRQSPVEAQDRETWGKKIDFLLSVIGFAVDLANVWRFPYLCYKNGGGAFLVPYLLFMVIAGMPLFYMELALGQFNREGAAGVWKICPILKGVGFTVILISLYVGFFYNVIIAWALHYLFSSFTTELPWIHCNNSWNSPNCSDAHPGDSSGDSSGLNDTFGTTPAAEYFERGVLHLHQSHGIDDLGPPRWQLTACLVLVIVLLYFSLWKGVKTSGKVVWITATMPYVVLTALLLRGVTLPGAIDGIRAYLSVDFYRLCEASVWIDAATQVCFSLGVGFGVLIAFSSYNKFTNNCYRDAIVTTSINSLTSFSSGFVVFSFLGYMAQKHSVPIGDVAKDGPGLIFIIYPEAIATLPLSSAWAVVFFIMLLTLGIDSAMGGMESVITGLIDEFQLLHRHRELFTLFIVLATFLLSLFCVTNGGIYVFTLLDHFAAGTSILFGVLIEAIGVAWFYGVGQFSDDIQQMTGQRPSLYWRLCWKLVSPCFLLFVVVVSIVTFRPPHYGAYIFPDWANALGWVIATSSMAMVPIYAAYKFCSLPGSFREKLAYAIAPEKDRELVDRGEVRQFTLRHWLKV
Chain of 5-hydroxytryptamine receptor 2C (Homo sapiens) (P28335 whole entry): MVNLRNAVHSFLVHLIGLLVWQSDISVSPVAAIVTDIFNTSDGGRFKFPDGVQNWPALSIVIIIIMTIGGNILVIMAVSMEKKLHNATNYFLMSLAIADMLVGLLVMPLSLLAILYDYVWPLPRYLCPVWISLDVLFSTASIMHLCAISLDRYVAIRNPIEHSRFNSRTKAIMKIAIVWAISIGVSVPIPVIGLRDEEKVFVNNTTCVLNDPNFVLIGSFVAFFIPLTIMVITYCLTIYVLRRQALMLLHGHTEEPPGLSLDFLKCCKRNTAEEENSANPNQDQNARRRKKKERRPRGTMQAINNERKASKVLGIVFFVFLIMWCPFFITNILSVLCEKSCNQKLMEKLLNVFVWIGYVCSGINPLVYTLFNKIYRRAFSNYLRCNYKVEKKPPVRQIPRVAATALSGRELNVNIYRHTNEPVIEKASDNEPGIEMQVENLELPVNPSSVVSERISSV
Chain of Alpha-2B adrenergic receptor (Homo sapiens) (P18089 whole entry): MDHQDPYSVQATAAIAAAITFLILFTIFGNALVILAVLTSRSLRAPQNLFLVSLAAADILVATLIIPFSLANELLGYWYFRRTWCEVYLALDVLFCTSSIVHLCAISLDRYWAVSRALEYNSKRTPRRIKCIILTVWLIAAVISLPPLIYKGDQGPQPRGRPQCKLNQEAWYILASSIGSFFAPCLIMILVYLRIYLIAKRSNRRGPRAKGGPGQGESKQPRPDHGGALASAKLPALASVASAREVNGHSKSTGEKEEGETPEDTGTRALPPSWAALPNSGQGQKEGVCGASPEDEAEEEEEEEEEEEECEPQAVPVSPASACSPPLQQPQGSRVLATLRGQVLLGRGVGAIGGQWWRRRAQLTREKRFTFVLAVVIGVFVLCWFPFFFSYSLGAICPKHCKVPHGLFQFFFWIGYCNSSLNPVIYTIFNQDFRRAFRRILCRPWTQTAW
Chain of Cannabinoid receptor 1 (Homo sapiens) (P21554 whole entry, the tested form may be a part): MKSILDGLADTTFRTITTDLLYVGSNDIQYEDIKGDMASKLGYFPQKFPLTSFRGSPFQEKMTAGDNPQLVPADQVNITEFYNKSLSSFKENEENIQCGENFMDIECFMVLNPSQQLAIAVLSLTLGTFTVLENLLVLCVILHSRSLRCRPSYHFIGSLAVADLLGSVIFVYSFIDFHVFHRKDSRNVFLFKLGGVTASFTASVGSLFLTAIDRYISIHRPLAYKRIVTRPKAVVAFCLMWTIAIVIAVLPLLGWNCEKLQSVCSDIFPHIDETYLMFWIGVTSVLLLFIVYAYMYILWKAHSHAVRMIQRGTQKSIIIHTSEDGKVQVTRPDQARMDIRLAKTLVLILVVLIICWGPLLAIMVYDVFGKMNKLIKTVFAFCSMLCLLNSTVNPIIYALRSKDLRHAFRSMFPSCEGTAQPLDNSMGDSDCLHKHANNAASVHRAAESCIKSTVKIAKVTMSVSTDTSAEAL
Chain of Sodium-dependent serotonin transporter (Homo sapiens) (P31645 whole entry, looked up, canonical isoform): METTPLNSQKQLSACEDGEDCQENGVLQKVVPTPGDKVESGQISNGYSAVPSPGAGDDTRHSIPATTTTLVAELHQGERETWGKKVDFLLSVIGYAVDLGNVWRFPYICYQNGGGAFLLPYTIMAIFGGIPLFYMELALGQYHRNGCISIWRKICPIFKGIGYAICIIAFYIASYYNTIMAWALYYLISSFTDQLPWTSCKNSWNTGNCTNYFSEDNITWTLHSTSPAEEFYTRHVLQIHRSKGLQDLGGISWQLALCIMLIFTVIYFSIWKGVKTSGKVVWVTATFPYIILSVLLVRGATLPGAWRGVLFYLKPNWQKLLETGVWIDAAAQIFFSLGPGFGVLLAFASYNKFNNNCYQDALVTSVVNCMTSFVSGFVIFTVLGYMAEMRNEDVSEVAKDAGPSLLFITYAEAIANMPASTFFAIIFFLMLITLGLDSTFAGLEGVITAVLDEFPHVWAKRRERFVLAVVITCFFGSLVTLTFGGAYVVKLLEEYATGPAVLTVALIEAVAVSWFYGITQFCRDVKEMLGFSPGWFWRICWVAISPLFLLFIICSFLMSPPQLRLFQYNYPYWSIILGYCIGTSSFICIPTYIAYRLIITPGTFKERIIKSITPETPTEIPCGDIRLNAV
Chain of D(4) dopamine receptor (Homo sapiens) (P21917 whole entry): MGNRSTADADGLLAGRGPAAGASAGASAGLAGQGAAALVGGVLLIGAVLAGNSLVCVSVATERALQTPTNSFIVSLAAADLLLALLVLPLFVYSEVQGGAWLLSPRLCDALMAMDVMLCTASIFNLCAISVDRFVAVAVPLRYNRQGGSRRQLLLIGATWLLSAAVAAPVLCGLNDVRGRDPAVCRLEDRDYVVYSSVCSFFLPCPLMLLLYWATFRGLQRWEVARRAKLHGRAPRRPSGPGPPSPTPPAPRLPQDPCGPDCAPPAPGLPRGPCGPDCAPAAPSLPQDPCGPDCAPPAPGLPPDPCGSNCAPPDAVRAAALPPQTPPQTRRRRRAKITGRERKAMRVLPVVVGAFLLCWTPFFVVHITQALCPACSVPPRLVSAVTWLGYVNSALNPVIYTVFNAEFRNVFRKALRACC

inhibition [1]: 33.5%
residual activity [2]: 111%
inhibition [3]: -9.6%
inhibition [4]: 0.15%
residual activity [5]: 106%
residual activity [6]: 100%
inhibition [7]: 6.31%
residual activity [8]: 97%
inhibition [9]: 0.2%
residual activity [10]: 105%
inhibition [11]: 13.7%
IC50 [12]: 43 nM (active)
residual activity [13]: 107%
residual activity [14]: 84%
residual activity [15]: 100%
residual activity [16]: 120%
residual activity [17]: 97%
residual activity [19]: 120%
residual activity [20]: 89%
inhibition [21]: -0.56%
inhibition [22]: -1.45%
residual activity [23]: 113%
inhibition [24]: 20.9%
residual activity [25]: 90%
residual activity [26]: 99%
residual activity [27]: 94%
inhibition [28]: 2.53%
residual activity [29]: 93%
inhibition [30]: 12.6%
residual activity [31]: 88%
residual activity [32]: 104%
residual activity [33]: 94%
inhibition [34]: 7.35%
residual activity [35]: 101%
residual activity [36]: 90%
inhibition [37]: 1.96%
SMILES: CNC(=O)COc1cc2cc(Nc3nc(N4C[C@H](C)C[C@H](C)C4)ncc3Cl)ccc2n(C)c1=O
residual activity [18]: 84%

Kd [39]: No binding
SMILES: C[C@@H]1C[C@H](C)CN(c2ncc(Cl)c(Nc3ccc4c(c3)cc(OC(C)(C)C(=O)O)c(=O)n4C)n2)C1
residual activity [38]: 95%
residual activity [40]: 86%
